In patent US20240269139A1, “COMPOUNDS FOR TARGETED PROTEIN DEGRADATION OF KINASES” (DANA-FARBER CANCER INSTITUTE, INC., priority 2020, published 2024):
Read-outs that look alike come from different tables or passages of the source.

What was measured:
[1] = biological target: T1, protein kinases (human kinome) (Homo sapiens, UniProt Q969Z0); type: cell-based; conditions: Accession Q969Z0-1; experiment wp084; direction down
T1 sequence (Q969Z0 108-631): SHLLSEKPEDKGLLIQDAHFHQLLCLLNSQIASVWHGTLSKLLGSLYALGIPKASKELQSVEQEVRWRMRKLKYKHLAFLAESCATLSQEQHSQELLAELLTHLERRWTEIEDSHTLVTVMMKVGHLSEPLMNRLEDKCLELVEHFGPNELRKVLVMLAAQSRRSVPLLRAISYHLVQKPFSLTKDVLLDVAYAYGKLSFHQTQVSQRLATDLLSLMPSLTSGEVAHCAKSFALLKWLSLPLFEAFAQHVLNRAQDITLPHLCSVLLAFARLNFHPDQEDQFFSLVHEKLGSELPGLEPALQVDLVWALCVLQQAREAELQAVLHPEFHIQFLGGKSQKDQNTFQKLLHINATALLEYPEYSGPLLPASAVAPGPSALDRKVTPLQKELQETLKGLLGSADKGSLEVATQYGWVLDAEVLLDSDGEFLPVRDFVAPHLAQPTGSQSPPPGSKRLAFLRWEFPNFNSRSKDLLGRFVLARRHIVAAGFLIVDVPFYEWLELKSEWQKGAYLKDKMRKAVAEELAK
Excerpt: (§1) Although development of targeted protein degraders requires a POI binder, among already-liganded proteins such as kinases, it was hypothesized that different targets would have a different propensity for current approaches to degrader-mediated destruction, which was termed ‘degradability’. […] It was rationalized that the probability of identifying the same kinase as a false positive in multiple treatments is low, therefore this analysis served to also assess the robustness of our data and subsequent interpretations. […] Overall, 62 protein kinases were degraded in more than 10 independent treatments, and remarkably, 9 of these (CDK4, AURKA, FER, WEE1, BLK. LIMK2, CDK6, GAK, LIMK1) were each degraded in at least 40 of the 154 independent treatments, emphasizing their predisposition to induced degradation (FIG. 1G; Appendix I).
(§2) Next, the frequency of degradation assessment was corrected for over-representation of molecules in the full dataset by omitting replicate profiling of compounds under different experimental conditions, to remove any bias. […] Unsurprisingly, the top degradable kinases mirror those from the previous analysis (CDK4, AURKA, FER, WEE1, BLK), confirming that in sufficiently large datasets, even with over-representation of certain molecules, frequency of degradation is a good measure of general tractability.

[2] = biological target: T2, protein kinases (human kinome) (Homo sapiens, UniProt O95835); type: cell-based; conditions: LATS1 O95835; experiment wp195
T2 sequence (O95835 1-1130): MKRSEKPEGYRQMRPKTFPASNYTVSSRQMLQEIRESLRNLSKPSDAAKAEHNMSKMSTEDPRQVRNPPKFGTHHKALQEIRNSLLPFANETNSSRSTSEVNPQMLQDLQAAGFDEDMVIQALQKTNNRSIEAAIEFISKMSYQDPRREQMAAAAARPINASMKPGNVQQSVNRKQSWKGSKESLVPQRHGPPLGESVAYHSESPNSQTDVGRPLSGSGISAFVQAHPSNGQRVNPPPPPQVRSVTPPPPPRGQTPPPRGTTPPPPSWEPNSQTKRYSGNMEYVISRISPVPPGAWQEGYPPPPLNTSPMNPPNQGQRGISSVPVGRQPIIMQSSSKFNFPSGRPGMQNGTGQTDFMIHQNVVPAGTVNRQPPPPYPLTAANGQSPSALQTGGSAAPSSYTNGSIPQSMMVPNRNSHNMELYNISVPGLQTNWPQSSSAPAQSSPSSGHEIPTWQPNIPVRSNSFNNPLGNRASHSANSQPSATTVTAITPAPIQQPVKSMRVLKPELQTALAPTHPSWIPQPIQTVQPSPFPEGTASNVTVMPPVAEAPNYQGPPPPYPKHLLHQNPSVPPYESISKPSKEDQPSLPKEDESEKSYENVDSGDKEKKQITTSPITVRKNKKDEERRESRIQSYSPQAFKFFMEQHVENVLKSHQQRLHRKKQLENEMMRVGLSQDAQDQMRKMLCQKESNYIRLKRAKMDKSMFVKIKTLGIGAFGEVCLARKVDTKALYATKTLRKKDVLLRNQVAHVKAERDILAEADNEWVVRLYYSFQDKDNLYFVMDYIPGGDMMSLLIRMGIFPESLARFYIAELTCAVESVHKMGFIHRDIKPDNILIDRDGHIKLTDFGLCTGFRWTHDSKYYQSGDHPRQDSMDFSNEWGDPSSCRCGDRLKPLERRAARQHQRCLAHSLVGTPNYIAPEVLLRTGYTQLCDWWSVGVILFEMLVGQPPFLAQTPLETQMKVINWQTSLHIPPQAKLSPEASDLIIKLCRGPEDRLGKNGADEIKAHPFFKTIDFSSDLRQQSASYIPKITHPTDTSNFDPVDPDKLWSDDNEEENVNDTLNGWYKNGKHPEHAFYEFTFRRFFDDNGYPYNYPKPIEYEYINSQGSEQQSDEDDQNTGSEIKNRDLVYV
Excerpt: as §1, §2

[3] = biological target: T3, protein kinases (human kinome) (Homo sapiens, UniProt Q9UEE5); type: cell-based; conditions: STK17A Q9UEE5; experiment wp195
T3 sequence (Q9UEE5 1-414): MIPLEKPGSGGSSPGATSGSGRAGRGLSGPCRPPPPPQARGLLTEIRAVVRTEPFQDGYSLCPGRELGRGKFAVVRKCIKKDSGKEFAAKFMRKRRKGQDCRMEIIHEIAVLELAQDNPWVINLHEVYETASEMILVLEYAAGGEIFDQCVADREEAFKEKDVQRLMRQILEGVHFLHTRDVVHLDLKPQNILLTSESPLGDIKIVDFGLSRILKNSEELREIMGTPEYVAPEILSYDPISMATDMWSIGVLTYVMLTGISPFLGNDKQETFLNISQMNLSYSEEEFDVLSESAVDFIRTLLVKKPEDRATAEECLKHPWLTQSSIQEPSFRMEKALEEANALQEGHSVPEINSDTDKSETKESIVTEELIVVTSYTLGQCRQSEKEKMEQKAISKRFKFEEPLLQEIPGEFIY
Excerpt: as §1, §2

[4] = biological target: T4, extended human kinome (kinase-like proteins) (Homo sapiens, UniProt Q9UHH9); experiment: Whole cell quantitative proteomics: extended kinome hits; conditions: Accession Q9UHH9; experiment wp195
T4 sequence (Q9UHH9 1-426): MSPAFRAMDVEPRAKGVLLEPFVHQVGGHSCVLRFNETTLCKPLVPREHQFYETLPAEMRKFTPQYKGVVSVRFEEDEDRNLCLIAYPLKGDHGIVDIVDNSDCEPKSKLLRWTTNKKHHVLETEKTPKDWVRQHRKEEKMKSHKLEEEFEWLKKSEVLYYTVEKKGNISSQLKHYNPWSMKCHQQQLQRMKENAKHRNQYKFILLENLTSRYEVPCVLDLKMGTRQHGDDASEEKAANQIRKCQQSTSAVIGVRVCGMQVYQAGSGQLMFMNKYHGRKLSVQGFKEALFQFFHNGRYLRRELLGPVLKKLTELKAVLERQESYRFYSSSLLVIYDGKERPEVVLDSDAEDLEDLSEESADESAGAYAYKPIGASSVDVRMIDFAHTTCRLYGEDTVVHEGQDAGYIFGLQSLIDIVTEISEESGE

[5] = biological target: T5, protein kinases (human kinome) (Homo sapiens, UniProt O14965); type: cell-based; conditions: experiment wp146
T5 sequence (O14965 1-403): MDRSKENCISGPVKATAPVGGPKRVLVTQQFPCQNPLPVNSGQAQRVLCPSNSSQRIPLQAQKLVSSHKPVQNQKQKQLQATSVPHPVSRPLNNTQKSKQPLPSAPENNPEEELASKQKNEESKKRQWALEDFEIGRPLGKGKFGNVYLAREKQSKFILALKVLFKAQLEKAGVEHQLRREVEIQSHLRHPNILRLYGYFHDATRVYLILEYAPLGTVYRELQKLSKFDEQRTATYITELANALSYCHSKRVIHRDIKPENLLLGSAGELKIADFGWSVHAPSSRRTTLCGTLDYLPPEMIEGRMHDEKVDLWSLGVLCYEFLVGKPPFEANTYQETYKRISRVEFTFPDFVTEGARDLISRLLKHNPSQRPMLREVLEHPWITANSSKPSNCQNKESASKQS
Excerpt: as §1, §2

[6] = biological target: protein kinases (human kinome) (Homo sapiens, UniProt P06493); type: cell-based; conditions: CDK1 P06493; experiment wp146
Excerpt: as §1, §2

[7] = biological target: protein kinases (human kinome) (Homo sapiens, UniProt P24941); type: cell-based; conditions: experiment wp146
Excerpt: as §1, §2

[8] = biological target: T6, protein kinases (human kinome) (Homo sapiens, UniProt P33981); type: cell-based; conditions: experiment wp146
T6 sequence (P33981 1-857): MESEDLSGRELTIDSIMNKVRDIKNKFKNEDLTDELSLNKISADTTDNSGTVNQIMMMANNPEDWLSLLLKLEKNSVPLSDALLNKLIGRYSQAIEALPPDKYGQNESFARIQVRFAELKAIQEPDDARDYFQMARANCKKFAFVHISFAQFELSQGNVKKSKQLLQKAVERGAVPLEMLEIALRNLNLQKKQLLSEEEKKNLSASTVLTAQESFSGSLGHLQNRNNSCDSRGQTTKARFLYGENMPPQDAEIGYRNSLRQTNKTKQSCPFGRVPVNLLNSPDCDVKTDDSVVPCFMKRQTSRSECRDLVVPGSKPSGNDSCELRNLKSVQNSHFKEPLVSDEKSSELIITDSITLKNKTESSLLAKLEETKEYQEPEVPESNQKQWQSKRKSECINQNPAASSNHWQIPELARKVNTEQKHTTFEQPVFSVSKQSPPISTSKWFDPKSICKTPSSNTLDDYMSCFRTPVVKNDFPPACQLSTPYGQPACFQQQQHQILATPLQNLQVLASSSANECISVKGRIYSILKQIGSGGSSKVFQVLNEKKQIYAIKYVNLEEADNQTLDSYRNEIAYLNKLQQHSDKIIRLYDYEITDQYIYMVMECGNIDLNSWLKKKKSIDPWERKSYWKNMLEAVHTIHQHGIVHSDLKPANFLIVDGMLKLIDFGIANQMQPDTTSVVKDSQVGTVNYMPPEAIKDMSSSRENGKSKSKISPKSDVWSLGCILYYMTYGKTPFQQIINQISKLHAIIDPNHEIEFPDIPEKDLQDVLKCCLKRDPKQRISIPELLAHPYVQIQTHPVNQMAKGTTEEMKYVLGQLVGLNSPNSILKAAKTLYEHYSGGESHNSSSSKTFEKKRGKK
Excerpt: as §1, §2

[9] = biological target: protein kinases (human kinome) (Homo sapiens, UniProt P45984); type: cell-based; conditions: MAPK9 P45984-1; experiment wp146
Excerpt: as §1, §2

[10] = biological target: protein kinases (human kinome) (Homo sapiens, UniProt P51812); type: cell-based; conditions: RPS6KA3 (P51812), experiment wp146
Excerpt: as §1, §2

[11] = biological target: protein kinases (human kinome) (Homo sapiens, UniProt Q00535); type: cell-based; conditions: experiment wp146
Excerpt: as §1, §2

[12] = biological target: protein kinases (human kinome) (Homo sapiens, UniProt Q05397); type: cell-based; conditions: PTK2 Q05397; experiment wp146
Excerpt: as §1, §2

[13] = biological target: protein kinases (human kinome) (Homo sapiens, UniProt Q9BYT3); type: cell-based; conditions: STK33 (Q9BYT3-1), experiment wp146
Excerpt: as §1, §2

[14] = system: protein kinases (human kinome); type: cell-based
Excerpt: as §1, §2

[15] = AURKB Q96GD4-5, experiment wp146

Sequence of protein kinases (human kinome) (Homo sapiens, UniProt P51812) (P51812 whole entry): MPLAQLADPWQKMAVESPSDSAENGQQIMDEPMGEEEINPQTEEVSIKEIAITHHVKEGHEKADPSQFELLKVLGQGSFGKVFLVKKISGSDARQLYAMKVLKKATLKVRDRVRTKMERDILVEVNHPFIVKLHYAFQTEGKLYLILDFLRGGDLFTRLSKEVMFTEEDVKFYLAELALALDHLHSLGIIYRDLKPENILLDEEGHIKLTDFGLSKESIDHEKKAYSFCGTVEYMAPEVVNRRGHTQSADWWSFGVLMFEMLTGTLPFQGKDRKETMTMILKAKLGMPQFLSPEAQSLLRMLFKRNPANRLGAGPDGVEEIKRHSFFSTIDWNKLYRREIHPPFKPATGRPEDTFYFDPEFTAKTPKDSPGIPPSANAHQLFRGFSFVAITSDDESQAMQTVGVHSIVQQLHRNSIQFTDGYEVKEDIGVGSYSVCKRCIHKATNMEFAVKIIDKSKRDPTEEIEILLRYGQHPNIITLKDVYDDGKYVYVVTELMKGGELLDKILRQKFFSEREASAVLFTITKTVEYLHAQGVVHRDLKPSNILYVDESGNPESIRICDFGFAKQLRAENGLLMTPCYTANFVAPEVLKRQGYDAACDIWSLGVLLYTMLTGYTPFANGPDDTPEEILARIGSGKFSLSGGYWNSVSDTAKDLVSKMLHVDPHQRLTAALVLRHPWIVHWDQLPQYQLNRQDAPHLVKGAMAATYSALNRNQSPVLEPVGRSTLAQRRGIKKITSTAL
Sequence of protein kinases (human kinome) (Homo sapiens, UniProt Q00535) (Q00535 whole entry): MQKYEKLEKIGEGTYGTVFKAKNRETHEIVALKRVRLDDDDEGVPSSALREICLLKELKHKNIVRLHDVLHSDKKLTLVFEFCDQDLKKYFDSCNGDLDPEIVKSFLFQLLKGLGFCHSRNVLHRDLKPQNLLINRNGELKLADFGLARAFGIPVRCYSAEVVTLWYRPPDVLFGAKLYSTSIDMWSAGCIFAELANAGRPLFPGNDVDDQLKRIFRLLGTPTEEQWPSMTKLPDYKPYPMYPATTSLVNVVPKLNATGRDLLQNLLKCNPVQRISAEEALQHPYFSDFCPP
Sequence of protein kinases (human kinome) (Homo sapiens, UniProt Q05397) (Q05397 whole entry): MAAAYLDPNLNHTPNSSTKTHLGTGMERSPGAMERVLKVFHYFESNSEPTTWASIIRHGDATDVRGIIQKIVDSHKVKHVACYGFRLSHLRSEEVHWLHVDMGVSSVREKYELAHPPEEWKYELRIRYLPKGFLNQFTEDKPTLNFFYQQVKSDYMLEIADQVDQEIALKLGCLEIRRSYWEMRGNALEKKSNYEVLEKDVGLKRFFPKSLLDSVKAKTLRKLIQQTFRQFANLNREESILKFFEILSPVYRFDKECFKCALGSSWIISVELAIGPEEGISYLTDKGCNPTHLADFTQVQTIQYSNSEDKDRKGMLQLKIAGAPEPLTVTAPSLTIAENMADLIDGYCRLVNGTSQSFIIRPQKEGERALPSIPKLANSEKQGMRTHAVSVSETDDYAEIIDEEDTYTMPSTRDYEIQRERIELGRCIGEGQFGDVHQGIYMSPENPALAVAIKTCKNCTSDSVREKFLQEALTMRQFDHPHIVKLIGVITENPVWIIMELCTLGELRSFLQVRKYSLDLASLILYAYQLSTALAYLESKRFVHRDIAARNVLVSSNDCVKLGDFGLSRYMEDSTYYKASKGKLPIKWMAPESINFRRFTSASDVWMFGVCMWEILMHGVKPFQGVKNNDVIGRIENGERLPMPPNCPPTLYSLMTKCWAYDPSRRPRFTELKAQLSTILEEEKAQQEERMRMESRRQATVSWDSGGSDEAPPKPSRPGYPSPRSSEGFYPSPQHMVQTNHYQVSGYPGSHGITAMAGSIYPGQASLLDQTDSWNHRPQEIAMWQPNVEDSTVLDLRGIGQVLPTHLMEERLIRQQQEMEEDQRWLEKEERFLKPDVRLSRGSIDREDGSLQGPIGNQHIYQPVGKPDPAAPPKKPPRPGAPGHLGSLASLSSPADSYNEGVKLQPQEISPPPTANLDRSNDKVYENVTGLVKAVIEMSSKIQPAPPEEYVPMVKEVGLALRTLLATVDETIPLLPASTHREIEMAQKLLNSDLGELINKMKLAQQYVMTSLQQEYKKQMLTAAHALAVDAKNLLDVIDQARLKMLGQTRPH
Sequence of protein kinases (human kinome) (Homo sapiens, UniProt Q9BYT3) (Q9BYT3 whole entry): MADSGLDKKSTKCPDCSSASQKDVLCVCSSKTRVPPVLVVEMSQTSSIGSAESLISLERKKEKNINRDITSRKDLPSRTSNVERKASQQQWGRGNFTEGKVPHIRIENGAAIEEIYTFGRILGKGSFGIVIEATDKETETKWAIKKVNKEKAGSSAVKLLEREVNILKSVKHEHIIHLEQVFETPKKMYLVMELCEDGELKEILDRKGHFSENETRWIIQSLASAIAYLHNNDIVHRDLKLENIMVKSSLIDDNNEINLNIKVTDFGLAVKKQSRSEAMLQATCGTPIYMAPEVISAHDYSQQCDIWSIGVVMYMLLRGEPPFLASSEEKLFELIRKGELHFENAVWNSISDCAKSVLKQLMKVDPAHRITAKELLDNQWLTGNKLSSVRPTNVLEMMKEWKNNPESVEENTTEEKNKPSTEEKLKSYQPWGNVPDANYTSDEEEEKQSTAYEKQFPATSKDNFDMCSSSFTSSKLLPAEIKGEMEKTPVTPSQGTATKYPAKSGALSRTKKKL
Sequence of protein kinases (human kinome) (Homo sapiens, UniProt P06493) (P06493 whole entry): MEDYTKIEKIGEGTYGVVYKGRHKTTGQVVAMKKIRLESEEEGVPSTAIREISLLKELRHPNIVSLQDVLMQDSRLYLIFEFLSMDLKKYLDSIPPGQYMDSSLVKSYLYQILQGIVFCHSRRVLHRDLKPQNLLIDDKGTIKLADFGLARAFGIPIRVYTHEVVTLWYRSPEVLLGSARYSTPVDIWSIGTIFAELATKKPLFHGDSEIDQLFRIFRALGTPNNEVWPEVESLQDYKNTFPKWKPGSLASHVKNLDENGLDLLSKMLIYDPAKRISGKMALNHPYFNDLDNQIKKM
Sequence of protein kinases (human kinome) (Homo sapiens, UniProt P45984) (P45984 whole entry): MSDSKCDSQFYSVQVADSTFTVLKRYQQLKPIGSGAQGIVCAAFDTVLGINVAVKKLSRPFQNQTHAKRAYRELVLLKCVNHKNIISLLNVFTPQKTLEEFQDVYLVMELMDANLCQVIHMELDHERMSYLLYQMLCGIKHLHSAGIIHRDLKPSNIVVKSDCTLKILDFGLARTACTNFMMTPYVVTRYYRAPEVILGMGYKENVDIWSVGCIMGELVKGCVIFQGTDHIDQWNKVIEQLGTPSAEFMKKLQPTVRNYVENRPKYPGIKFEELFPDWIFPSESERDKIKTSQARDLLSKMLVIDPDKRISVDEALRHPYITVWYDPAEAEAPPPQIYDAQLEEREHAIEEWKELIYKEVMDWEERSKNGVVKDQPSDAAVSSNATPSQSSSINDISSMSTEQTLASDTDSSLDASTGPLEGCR

CC(=O)c1c(C)c2cnc(Nc3ccc(N4CCN(CCOCCOCCOCCNC(=O)COc5cccc6c5C(=O)N(C5CCC(=O)NC5=O)C6=O)CC4)cn3)nc2n(C2CCCC2)c1=O (centres unmarked) [BS.J.03.123]
logFC TBRG4 [1]: −0.5

Cc1ncsc1-c1ccc([C@H](C)NC(=O)[C@@H]2C[C@@H](O)CN2C(=O)[C@@H](NC(=O)CCCCOc2ccccc2-c2ccc3nc(-c4cccnc4N)n(-c4ccc(C5(N)CCC5)cc4)c3n2)C(C)(C)C)cc1 [INY.04.125.01]
logFC [2]: −0.4176
logFC LATS1 [2]: −0.4176
logFC [3]: −0.4084
logFC STK17A [3]: −0.4084
logFC IP6K2 [4]: −0.4946

Cc1cc(S(=O)(=O)NCCOCCOCCOCCOCCNc2cccc3c2C(=O)N(C2CCC(=O)NC2=O)C3=O)ccc1Nc1ncc(Br)c(Nc2cccc(F)c2C(N)=O)n1 (centres unmarked) [TMX.02.172]
logFC AURKA (O14965) [5]: −2.402
logFC [6]: −1.302
logFC CDK1 [6]: −1.302
logFC CDK2 (P24941-1) [7]: −2.199
logFC CDK2 (P24941-1) ([7]; direction of change down): −2.199
logFC TTK ([8]; Accession P33981): −0.7542
logFC TTK (P33981) [8]: −0.7542
logFC [9]: −1.091
logFC MAPK9 [9]: −1.091
logFC [10]: −0.8349
logFC ([10]; direction down): −0.8349
logFC CDK5 (Q00535) [11]: −2.878
logFC CDK5 (Q00535) ([11]; direction of change down): −2.878
logFC [12]: −0.7381
logFC PTK2 [12]: −0.7381
logFC [13]: −1.295
logFC ([13]; direction down): −1.295
logFC [14, 15]: −0.4856
logFC AURKB [14, 15]: −0.4856
logFC MAPK8 (P45983-4) ([14]; Experiment wp146, direction down): −0.5524
logFC MAPK8 ([14]; MAPK8 P45983-4, experiment wp146): −0.5524
logFC RPS6KA1 ([14]; RPS6KA1 (Q15418-2), experiment wp146): −1.351
logFC RPS6KA1 (Q15418-2) ([14]; experiment wp146): −1.351
